# Measurements: patent US10676440B2, “Crystalline forms of an NK-1 antagonist” (Helsinn Healthcare SA, priority 2014, dated 2020)
# Assay: in vivo
# Conditions: male, RoRo Fuellinsdorf, rat, in vivo; for AUC(0-t): AUC (0-24 h)
# Method: In Example 11, the pharmacokinetics of the compound of Formula I was evaluated following single intravenous, intraperitoneal, and oral administration to rats to compare the oral bioavailability of two different formulations and to measure the brain penetration after intravenous administration.
# A solution of the compound of Formula I (4.7 mg/mL) in water and a suspension of the compound of Formula I (5 mg/mL) in SSV (standard suspension vehicle) were prepared.
# The experiments were performed in 20 male rats (Strain RoRo Fuellinsdorf, body weight 230-290 g) from Biological Research Laboratories, Fuellinsdorf, Switzerland. The animals were housed under standard laboratory conditions throughout the study period. After an acclimatization period of 3 days, the rats were implanted with chronic jugular catheters under pentobarbital anesthesia. After surgery the rats were on recovery for 2 days before dosing. They had free access to water and food during the experiment.
# For the pharmacokinetic studies, 0.4 mL blood samples were collected at different time points, up to 72 hours post-dose, from the jugular vein of the rats via catheter. For the study of brain and CSF penetration, 2 mL blood samples as well as CSF and brain were collected between 0.3 and 2 hours post-dose from one rat at each time point. Collection tubes contained EDTA/NAF as anticoagulant and stabilizer, respectively. After centrifugation, plasma was removed. Plasma, CSF and brain samples were stored deep-frozen at approximately −20° C. until analysis using a specific LC-MS method.
# Aliquots of plasma samples of 40 μL were mixed with 50 μL buffer pH 9, 50 μL of a Formula I internal standard (1 μg/mL 1-chlorobutane) and 250 μL butylacetate and then shaken for 10 min. After centrifugation, 200 μL of the supernatant were evaporated to dryness at 45° C. under a stream of nitrogen. The residue was reconstituted with 200 μL acetonitrile/1% formic acid in water (30/70, v/v). An aliquot of 30 μL was injected onto an analytical column (Waters, Symmetry C8, 2.1×150 mm, 5 μm).
# The sample passed to the ion-spray interface of the single quadrupole mass spectrometer. Selected ion monitoring mode (SIM) was used for mass spectrometric detection. Quantification was based on peak area ratios and calibration curve established by weighted (1/x^2) linear regression. The calibration curve was established between 5 and 5000 ng/mL using dog plasma as matrix. Data acquisition and integration of SIM chromatograms were performed using MacQuan (version 1.6) from Perkin-Elmer Sciex.
# The pharmacokinetic parameters were estimated by non-compartmental analysis, using the pharmacokinetic evaluation program WinNOnlin [1]. AUC(0-inf) was calculated applying the linear trapezoidal rule and extrapolation to infinity using the apparent elimination rate constant λz and the calculated concentration at the last measurable time point. AUClast values were calculated by linear trapezoidal rule from time zero to time of last measureable time point. Cmax, C(t), and Tmax were determined directly from the plasma concentration-time profiles. The apparent terminal half-life (T1/2) was derived from the equation: T1/2=ln2/λz. Means of the half-life were calculated by harmonic means. Plasma clearance, CL, was calculated as D/AUC(0-inf.). Volume of distribution, Vz, was calculated as CL/λz. The absolute bioavailability was calculated from plasma concentration data as follows: […]
# A solution of Formula I (hydrochloride salt) was administered intravenously at a dose of 9.4 mg/kg to 2 male rats in two subsequent experiments. In both studies, blood samples were obtained at 0.083, 0.25, 0.5, 1, 2, 4, 6, 8, and 24 h after intravenous application and in addition at 48 and 72 h in the study.
smiles,measurement,setting,value
"Cc1ccccc1-c1cc(N2CCN(C)CC2)ncc1N(C)C(=O)C(C)(C)c1cc(C(F)(F)F)cc(C(F)(F)F)c1 [Formula I, 2-(3,5-bis(trifluoromethyl)phenyl)-N,2-dimethyl-N-(6-(4-methylpiperazin-1-yl)-4-(o-tolyl)pyridin-3-yl)propanamide]",AUC (0-24 h),"ip, 9.4 mg/kg",19900 ng·h/mL
same,Cmax,"ip, 9.4 mg/kg",1730 ng/mL
same,Tmax,"ip, 9.4 mg/kg",0.25 h
same,AUC(0-t),"ip, 9.4 mg/kg",26800 ng·h/mL
same,Cmax,"ip, 9.4 mg/kg, Cmax",1610 ng/mL
same,Tmax,"ip, 9.4 mg/kg, Tmax",≤ 0.25 h
same,Vd,iv,12 L/kg
same,clearance,iv,6 mL/min/kg
same,AUC (0-24 h),"iv, 9.4 mg/kg",24400 ng·h/mL
same,AUC(0-t),"iv, 9.4 mg/kg",29200 ng·h/mL
same,half-life,"iv, 9.4 mg/kg, mean apparent terminal half-life",19.5 h
same,AUC (0-24 h),"po, 9.4 mg/kg",12600 ng·h/mL
same,Cmax,"po, 9.4 mg/kg",682 ng/mL
same,T1/2,"po, 9.4 mg/kg",18.9 h
same,Tmax,"po, 9.4 mg/kg",4 h
same,AUC(0-t),"po, 9.4 mg/kg",15000 ng·h/mL
same,Cmax,"po, 9.4 mg/kg, Cmax",991 ng/mL
same,half-life,"po, 9.4 mg/kg, T1/2",17.7 h
same,Tmax,"po, 9.4 mg/kg, Tmax",2 h
